From PubChem BioAssay (NCI) come the findings set out here.

Test systems include PC-3 prostate; EKVX NSCLC; HOP-62 NSCLC; DU-145 prostate; 786-0 renal; HCT-116 colon; T-47D breast; SF-539 CNS; BT-549 breast; HL-60(TB) leukemia.
Holding throughout (assay): DTP human tumour cell line panel, 48 h

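Compound exposure: 48 hours, 5 concentrations, 96-well plates. The concentration for 50% growth inhibition is given as GI50. TGI: total growth inhibition.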 Where only a bound is given, the exact number is not on record here.

`COC(=O)C1CC2(c3ccc(C)cc3)C(c3ccc(C)cc3)=C(c3ccc(C)cc3)C1(c1ccc(C)cc1)S2=O` (stereo unspecified): the GI50 (usually the concentration giving 50% growth inhibition) with PC-3 prostate was over 100 µM; with EKVX NSCLC, over 100 µM; with HOP-62 NSCLC it was 34.8 µM; with DU-145 prostate, over 100 µM; with 786-0 renal, 70.8 µM; in the test on HCT-116 colon it was 73200 nM. Besides, the GI50 is 60.4 µM with T-47D breast, over 100 µM in the test with SF-539 CNS and over 100 µM with BT-549 breast. Also, the TGI in the test with PC-3 prostate, with EKVX NSCLC, in the test with HOP-62 NSCLC, with DU-145 prostate, in the test with 786-0 renal and in the test on HCT-116 colon was over 100 µM throughout. The TGI in the test with T-47D breast, in the test on SF-539 CNS and with BT-549 breast was over 100 µM each time.

Consider `Nc1c(C(=O)Nc2cccc3ccccc23)sc2nc3c(cc12)CCCC3`, for which the GI50 was 1.8 µM in the test with PC-3 prostate; 233 nM in the test with HL-60(TB) leukemia; 4.47 µM in the test with EKVX NSCLC; 2.16 µM in the test on HOP-62 NSCLC; 2.62 µM in the test on DU-145 prostate; 1.11 µM in the test with 786-0 renal. For the same molecule, the GI50 was 800 nM in the test on HCT-116 colon, 0.44 µM in the test on T-47D breast, 1.45 µM in the test on SF-539 CNS and 1.4 µM with BT-549 breast. For the same molecule, the TGI – broadly, the concentration giving total growth inhibition – is over 100 µM with PC-3 prostate; 0.802 µM in the test with HL-60(TB) leukemia; over 100 µM in the test with EKVX NSCLC; over 100 µM in the test with HOP-62 NSCLC; over 100 µM in the test with DU-145 prostate; over 100 µM with 786-0 renal. The concentration for total growth inhibition (TGI) was over 100 µM in the test on HCT-116 colon, 90.5 µM in the test on T-47D breast, over 100 µM in the test with SF-539 CNS and 17.2 µM with BT-549 breast.

As for `COC(=O)c1[nH]nc(-c2ccccc2)c1N1CCCCC1`, the GI50 with PC-3 prostate was 38.9 µM; in the test with HL-60(TB) leukemia, over 100000 nM; with EKVX NSCLC, 23.7 µM; in the test with HOP-62 NSCLC, 22 µM; in the test with DU-145 prostate it was 30.5 µM; in the test with 786-0 renal, 21.1 µM. Besides, the GI50 is 27 µM in the test on T-47D breast, 20.6 µM in the test on SF-539 CNS and 43.9 µM in the test on BT-549 breast. The TGI with PC-3 prostate was over 100 µM; in the test on HL-60(TB) leukemia it was over 100 µM; in the test on EKVX NSCLC it was 73.3 µM; in the test on HOP-62 NSCLC, 57 µM; in the test on DU-145 prostate, over 100 µM; with 786-0 renal, 57.9 µM. The TGI in the test with T-47D breast is 72.4 µM; in the test with SF-539 CNS, 57.4 µM; in the test on BT-549 breast, over 100 µM.

Take `Cn1c2ccccc2c2cc(-c3ccccc3)c3c(c21)C(=O)C=CC3=O`: the TGI in the test on PC-3 prostate was 34.8 µM; with HL-60(TB) leukemia, 42.3 µM; with EKVX NSCLC it was over 100 µM; in the test with HOP-62 NSCLC, over 76 µM; in the test with DU-145 prostate, over 100 µM; in the test with 786-0 renal, 22.7 µM. Moreover, the TGI turned out to be 41.4 µM with HCT-116 colon, 49.9 µM in the test with T-47D breast, 58.3 µM in the test on SF-539 CNS and 26.5 µM with BT-549 breast.

For `COc1cc(/C=C/C(=O)c2c(C)n([O-])c3cc(C)c(C)cc3[n+]2=O)cc(OC)c1OC`, the GI50 with PC-3 prostate is 14.2 µM; in the test with HL-60(TB) leukemia, 12100 nM; with EKVX NSCLC it was 18 µM; with HOP-62 NSCLC, 20.2 µM; in the test with DU-145 prostate, 13.1 µM; in the test on 786-0 renal, 19.2 µM. The GI50 in the test with HCT-116 colon was 8080 nM; in the test on T-47D breast, 20.5 µM; in the test on SF-539 CNS, 14.9 µM; in the test with BT-549 breast, 11.8 µM. The TGI in the test on PC-3 prostate is 38.5 µM; in the test on HL-60(TB) leukemia it was 61.7 µM; in the test with EKVX NSCLC, 42.1 µM; in the test on HOP-62 NSCLC, 58.2 µM; with DU-145 prostate, 30.8 µM; in the test with 786-0 renal it was 46.1 µM. Further, the TGI in the test on HCT-116 colon stood at 38.3 µM; with T-47D breast, 73.7 µM; in the test on SF-539 CNS, 31.6 µM; with BT-549 breast it was 30.8 µM.

For the molecule `Cc1cc(N(CCCNc2ccnc3cc(Cl)ccc23)Cc2cccs2)nc(Cl)n1`, the GI50 with PC-3 prostate is 3.32 µM; in the test on EKVX NSCLC it was 3.72 µM; in the test on HOP-62 NSCLC it was 11.8 µM; in the test with DU-145 prostate, 7.9 µM; in the test on 786-0 renal it was 5.48 µM; in the test with HCT-116 colon, 1080 nM. Also, the values for the GI50 in the test on T-47D breast, in the test with SF-539 CNS and in the test on BT-549 breast were 1.99 µM, 7.02 µM and 3.69 µM, respectively. In addition, the TGI with PC-3 prostate is 22.9 µM; in the test on EKVX NSCLC, 27.2 µM; in the test with HOP-62 NSCLC, 29.6 µM; in the test on DU-145 prostate, 23.1 µM; in the test with 786-0 renal it was 20.6 µM; with HCT-116 colon, 12.8 µM. Besides, the TGI is 20.6 µM in the test on T-47D breast, 23.1 µM in the test on SF-539 CNS and 15.7 µM in the test on BT-549 breast.

With `COc1cc(C2c3cc4c(cc3C3OC(=O)C2C3CO)OCO4)cc(OC)c1OC` (stereo unspecified), the GI50 with PC-3 prostate is 0.0285 µM; with HL-60(TB) leukemia, 20.7 nM; with HOP-62 NSCLC, 0.0339 µM; in the test on DU-145 prostate, 0.0285 µM; in the test on 786-0 renal it was 0.0437 µM; in the test on HCT-116 colon, 19.1 nM. In addition, the GI50 is 0.0181 µM in the test with T-47D breast, under 0.0122 µM in the test with SF-539 CNS and 0.0334 µM in the test on BT-549 breast. Also, the TGI in the test on PC-3 prostate was over 100 µM; in the test on HL-60(TB) leukemia, 0.0748 µM; in the test on HOP-62 NSCLC, over 100 µM; in the test on 786-0 renal it was over 100 µM; in the test with HCT-116 colon it was over 100 µM; in the test on T-47D breast, over 100 µM. Further, the TGI in the test on SF-539 CNS was determined as 0.0668 µM; in the test with BT-549 breast, 9.27 µM.

For the molecule `NC1=CC(=O)C(=O)c2cccnc21`, the GI50 in the test with PC-3 prostate was 11.2 µM; in the test with HL-60(TB) leukemia, 2800 nM; in the test on EKVX NSCLC, 12.5 µM; with HOP-62 NSCLC it was 2.58 µM; in the test on DU-145 prostate, 4.94 µM; in the test on 786-0 renal, 14.8 µM. Moreover, the GI50 in the test on HCT-116 colon is 3000 nM; in the test on T-47D breast, 3.68 µM; in the test on SF-539 CNS it was 7.59 µM; in the test with BT-549 breast, 4.73 µM. Moreover, the TGI with PC-3 prostate turned out to be 49.2 µM; in the test with HL-60(TB) leukemia it was 9.08 µM; with EKVX NSCLC it was 26.1 µM; in the test with HOP-62 NSCLC, 7.15 µM; in the test with DU-145 prostate, 16.3 µM; in the test on 786-0 renal it was 28 µM. Further, the TGI came to 12.5 µM with HCT-116 colon, 9.73 µM in the test with T-47D breast, 20.3 µM with SF-539 CNS and 18.7 µM in the test on BT-549 breast.
